In patent US20190030018A1 (Celgene Corporation, priority 2017, published 2019):
Like-named read-outs stand apart in the source and are kept apart here.

Experiments:
[1] = tested on: IDH2 mutant cell line TF1-R140Q; test: Hemoglobinization / EPO induced differentiation assay with flow cytometry; format: cell-based; details: EPO induction 7 days
Procedure: (§1) Cells were plated at a density of 0.2e^6 cells/ml of 2 ml culture in 6 well plates.
FIG. 91 provides the dosing schedules used in this study.
(§2) TF1 cells were cultured in the following media: RPMI containing HEPES and L-glutamine, 10% FBS, Pen/Strep, G418 (final conc 500 μg/ml), and GM-CSF (final conc 5 ng/ml). The cells were cultured for 7 days, with or without compound treatment as described in FIG. 91.
(§3) For the hemoglobinization assay, TF1 cells were washed three times with PBS to remove residual GM-CSF then plated at (100,000 cells/ml). Cells were then induced to differentiate using EPO (2 unit/ml). Induction continued for 7 days with changing media on 4th day and adding media with fresh EPO. The cell pellets were collected and imaged for hemoglobinization content (as a surrogate for differentiation into blood lineage). Cells were pelleted, washed, stained with a panel of antibodies and analyzed by flow cytometry, using the following antibodies: […]

[2] = Dynamic vapor sorption (DVS) of solid forms; format: physicochemical; details: relative humidity increased from about 0% to about 90% RH
Procedure: In certain embodiments, Form A is characterized by dynamic vapor sorption analysis. […] In certain embodiments, Form A comprises less than 0.1% water as determined in a coulometric Karl Fischer (KF) titrator equipped with an oven sample processor set at 225° C.
In certain embodiments, Form B is characterized by dynamic vapor sorption analysis. […] In certain embodiments, Form B comprises less than 0.1% water as determined in a coulometric Karl Fischer (KF) titrator equipped with an oven sample processor set at 225° C.
In certain embodiments, Form C is characterized by dynamic vapor sorption analysis. […] In certain embodiments, Form C comprises less than 0.1% water as determined in a coulometric Karl Fischer (KF) titrator equipped with an oven sample processor set at 225° C.

[3] = physchem; format: physicochemical
From the text: “Compound 1, Form C” or “Form C” or “API”” in the Examples herein refers to polymorph Form C of 2-(4-chlorophenyl)-N-((2-(2,6-dioxopiperidin-3-yl)-1-oxoisoindolin-5-yl)methyl)-2,2-difluoroacetamide. “Compound 1, Form A” or “Form A” in the Examples herein refers to polymorph Form A of 2-(4-chlorophenyl)-N-((2-(2,6-dioxopiperidin-3-yl)-1-oxoisoindolin-5-yl)methyl)-2,2-difluoroacetamide.

[4] = tested on: IL3 independent JAK2 V617F BaF3 cells; test: Combination studies with JAK2 inhibitors in engineered BaF3 cells, CellTitre-Glo after 3 days; format: cell-based; details: compared to the IL3 dependent lines
Procedure: Everolimus was included as a control. The cell viability was then measured by CellTitre-Glo® after 3 days.

[5] = tested on: AML cell lines; test: In vitro combination studies, CellTitre-Glo cell viability (Bliss, Loewe, HSA, CES synergy analysis); details: FLT3 and JAK inhibitors in combination with Compound 1 in MOLM-13 and NOMO-1 cell lines
[6] = tested on: JAK2V617F AML cell lines HEL, SET-2, MUTZ-8; test: Combination studies with JAK2 inhibitors in AML cell lines, CellTitre-Glo after 3 days; format: cell-based
[7] = patients, literature value; read-out: clinical Cmax; cited from earlier work
[8] = tested on: OCT-AML-3; test: In vitro combination studies, CellTitre-Glo cell viability; details: OCI-AML-3; in combination with Compound 1
[9] = tested on: NOMO-1; test: as above; details: NOMO-1; in combination with Compound 1
[10] = tested on: HL-60; test: as above; details: HL-60; in combination with Compound 1
[11] = tested on: F-36-P; test: as above; details: F-36-P; in combination with Compound 1
[12] = tested on: MV-4-11; test: as above; details: MV-4-11; in combination with Compound 1
[13] = tested on: OCI-AML-2; test: as above; details: OCI-AML-2; in combination with Compound 1
[14] = tested on: MOLM-13; test: as above; details: MOLM-13; in combination with Compound 1
[15] = tested on: HNT-34; test: as above; details: HNT-34; in combination with Compound 1
[16] = tested on: KG-1; test: as above; details: KG-1; in combination with Compound 1
[17] = tested on: ML-2; test: as above; details: ML-2; in combination with Compound 1
[18] = GA0087 PDX model ex vivo 3D methylcellulose CellTiter-Glo cell viability assay (IC50, matrix combination, Combination Index)
[19] = tested on: stomach cancer cell line GA0087; test: as above
[20] = tested on: IDH2 mutant cell line TF1-R140Q; test: Proliferation (total, HSC and progenitor cell count) in the TF1 assay; format: cell-based
Procedure: as §1, §2, §3

[21] = tested on: GSPT1 and mTORC1 effectors in BON cells; test: Western blot of BON cell lysates after 120 h treatment; format: cell-based
Procedure: BON cells were cultured in DMEM: F12K media containing 10% fetal bovine serum and penicillin/streptomycin antibiotics. […] Cells were harvested and probed with antibodies for western blots and imaged using a Li-Cor Odyssey imaging system. All total and phosphorylated antibodies were obtained from Cell Signaling Technology.

[22] = tested on: primary human tumor xenograft model GA0087; test: HuPrime gastric cancer xenograft GA0087 model, in vivo efficacy; set-up: species or system female BALB/c nude mice; details: single agent, 1.25 mg/kg and 5 mg/kg
From the text: Tumor fragments from stock mice were harvested and used for inoculation into mice. Each mouse was inoculated subcutaneously at the right flank with primary human tumor xenograft model GA0087 tumor fragment (P7, 2-3 mm in diameter) for tumor development. […] After tumor inoculation, the animals were checked daily for morbidity and mortality. At the time of routine monitoring, the animals were checked for any effects of tumor growth and treatments on normal behavior such as mobility, food and water consumption, body weight gain/loss, eye/hair matting and any other abnormal effect. Death of euthanized mouse was recorded. All groups were terminated on Day 40. Three tumors in each group, with tumor volume near median of each group were collected. Plasma of the same mice were collected. For comparison among three or more groups, one-way ANOVA was performed followed by multiple comparison procedures. All data were analyzed using SPSS 18.0. P values <0.05 is considered to be statistically significant.

[23] = tested on: human QGP1 pancreatic somatostatinoma xenografts
[24] = tested on: GSPT1 expression, mTOR activation, Mcl-1 expression and Caspase-3 cleavage in AML cells; test: Immunoblot analysis of AML cells treated with Compound 1 and everolimus; format: cell-based
From the text: Whole cell extracts were collected and subjected to immunoblot analysis.

[25] = read-out: Absolute IC50, GA0087-1st experiment
[26] = read-out: Absolute IC50, GA0087-2nd experiment

In the case of `Nc1nc(Nc2ccnc(C(F)(F)F)c2)nc(-c2cccc(C(F)(F)F)n2)n1` [Compound 2, 6-(6-(trifluoromethyl)pyridin-2-yl)-N^2-(2-(trifluoromethyl)pyridin-4-yl)-1,3,5-triazine-2,4-diamine], the hemoglobin expression [1] is reported as “increase in hemoglobin expression”.

For `O=C1CCC(N2Cc3cc(CNC(=O)C(F)(F)c4ccc(Cl)cc4)ccc3C2=O)C(=O)N1` (stereo not shown) [Form A, 2-(4-chlorophenyl)-N-((2-(2,6-dioxopiperidin-3-yl)-1-oxoisoindolin-5-yl)methyl)-2,2-difluoroacetamide], the “water uptake (DVS)” value [2] was “about 1.2 % w/w”.

For `O=C1CCC(N2Cc3cc(CNC(=O)C(F)(F)c4ccc(Cl)cc4)ccc3C2=O)C(=O)N1` (stereo not shown) [Form B, 2-(4-chlorophenyl)-N-((2-(2,6-dioxopiperidin-3-yl)-1-oxoisoindolin-5-yl)methyl)-2,2-difluoroacetamide], the “water uptake (DVS)” value [2] was “about 1.4 % w/w”.

In the case of `O=C1CCC(N2Cc3cc(CNC(=O)C(F)(F)c4ccc(Cl)cc4)ccc3C2=O)C(=O)N1` (stereo not shown) [Form C, 2-(4-chlorophenyl)-N-((2-(2,6-dioxopiperidin-3-yl)-1-oxoisoindolin-5-yl)methyl)-2,2-difluoroacetamide], the “thermodynamic stability among the crystal forms” value [3] is reported as “most thermodynamically stable anhydrate” and the “water uptake (DVS)” value [2] is reported as “about 0.6 % w/w”.

With `C[C@H](Nc1cc(-c2cnn(C)c2)cc(Nc2cnccn2)n1)c1ccc(F)cc1` [NS-018] the single agent sensitivity [4] was “more sensitive”, the Synergy [5] was “Yes” and the “cell viability, single agent” value [6] was “inhibit cell viability”. The Cmax [7] was 2570 nM.

With `FC(F)(F)c1ccc(CNc2ccc(Cc3c[nH]c4ncc(Cl)cc34)cn2)cn1` [Pexidartinib] the “Synergy analysis for combinations with Compound 1” value (“Synergy analysis for combinations” for short) [8] was “No”, the “Synergy analysis for combinations” value [9] was “No” and the “Synergy analysis for combinations” value [10] was “No”. For the same compound, the Synergy [5] was “Yes”, the “Synergy analysis for combinations” value [11] was “No” and the “Synergy analysis for combinations” value [12] was “Yes”. The “Synergy analysis for combinations” value [13] was “No”, the “Synergy analysis for combinations” value [14] was “Yes” and the “Synergy analysis for combinations” value [15] was “No”. The “Synergy analysis for combinations” value [16] was “No” and the “Synergy analysis for combinations” value [17] was “No”.

Work on `N.N.[Cl][Pt][Cl]` [cisplatin] yielded an IC50 [18, 25] of 3.35 µM, an IC50 [18, 26] of 3.53 µM and an IC50 ([18]; read-out: Relative IC50, GA0087-1st experiment) of 3.17 µM. For the same compound, the IC50 ([18]; read-out: Relative IC50, GA0087-2nd experiment) was 3.3 µM, the “Maximal Inhibition” value ([19]; GA0087-1st experiment) was 98.73% and the “Maximal Inhibition” value ([19]; GA0087-2nd experiment) was 98.48%.

In the case of `CC(C)(O)CNc1nc(Nc2ccnc(C(F)(F)F)c2)nc(-c2cccc(C(F)(F)F)n2)n1` [enasidenib, reference compound], the hemoglobin expression [1] is reported as “increase in hemoglobin expression” and the “proliferation (total, HSC and progenitor cell count)” value [20] is reported as “mild growth promoting effect”.

For `CO[C@H]1C[C@@H]2CC[C@@H](C)[C@@](O)(O2)C(=O)C(=O)N2CCCC[C@H]2C(=O)O[C@H]([C@H](C)C[C@@H]2CC[C@@H](OCCO)[C@H](OC)C2)CC(=O)[C@H](C)/C=C(\C)[C@@H](O)[C@@H](OC)C(=O)[C@H](C)C[C@H](C)/C=C/C=C/C=C/1C` [everolimus, reference compound], the “Synergy analysis for combinations” value [8] was “Yes”, the “effect on mTORC1 effectors (p4EBP1, phosphorylation of S6)” value [21] was “dramatically decreased phosphorylation of S6 and phosphorylation of 4EBP1” and the anti-tumor activity [22] was “moderate anti-tumor activity”. The “Synergy analysis for combinations” value [9] was “No”, the “Synergy analysis for combinations” value [10] was “No” and the single agent sensitivity [4] was “more sensitive”. The “Synergy analysis for combinations” value [11] was “Yes”, the “Synergy analysis for combinations” value [12] was “Yes” and the “Synergy analysis for combinations” value [13] was “Yes”. The “Synergy analysis for combinations” value [14] was “Yes”, the “Synergy analysis for combinations” value [15] was “No” and the “Synergy analysis for combinations” value [16] was “No”. The tumor growth inhibition ([23]; 3 mg/kg i.p. qd x 21, Day 52) was 41%, the tumor growth inhibition ([23]; 10 mg/kg i.p. qd x 21, Day 52) was 39% and the “Synergy analysis for combinations” value [17] was “Yes”. The IC50 [18, 25] was 0.0061 µM, the IC50 [18, 26] was 0.0075 µM and the “Maximal Inhibition” value ([19]; GA0087-1st experiment) was 73.15%. The “Maximal Inhibition” value ([19]; GA0087-2nd experiment) was 72.80%, the “GSPT1 expression/degradation, Mcl-1 loss, Caspase-3 cleavage” value [24] was “minimal effect” and the “activation of the mTOR pathway (phosphorylation of S6K1 and 4E-BP1)” value [24] was “significantly blocked the activation of the mTOR pathway”.

For `N#CCNC(=O)c1ccc(-c2ccnc(Nc3ccc(N4CCOCC4)cc3)n2)cc1` [momelotinib, reference compound], the single agent sensitivity [4] was “more sensitive” and the Synergy [5] was “Yes”.

In the case of `N#CC[C@H](C1CCCC1)n1cc(-c2ncnc3[nH]ccc23)cn1` [ruxolitinib], the Cmax [7] is listed as 500 to 1000 nM.
